In patent publication US12201619B2, “Compounds and methods for use in the treatment of microglia-mediated disorders” (NSC Therapeutics GmbH, priority 2018, dated 2025):
Residue numbers refer to the chain shown, from its start. “Also recorded” adds a separate entry of the source.

Columns and labels:
human M1 mAChR [1] = target: T1, human M1 mAChR (Homo sapiens, UniProt P11229); test: cell-based; details: for calcium mobilization response relative to CCh: CHOM1 cells, 50 μM compound
T1 sequence (P11229 1-460): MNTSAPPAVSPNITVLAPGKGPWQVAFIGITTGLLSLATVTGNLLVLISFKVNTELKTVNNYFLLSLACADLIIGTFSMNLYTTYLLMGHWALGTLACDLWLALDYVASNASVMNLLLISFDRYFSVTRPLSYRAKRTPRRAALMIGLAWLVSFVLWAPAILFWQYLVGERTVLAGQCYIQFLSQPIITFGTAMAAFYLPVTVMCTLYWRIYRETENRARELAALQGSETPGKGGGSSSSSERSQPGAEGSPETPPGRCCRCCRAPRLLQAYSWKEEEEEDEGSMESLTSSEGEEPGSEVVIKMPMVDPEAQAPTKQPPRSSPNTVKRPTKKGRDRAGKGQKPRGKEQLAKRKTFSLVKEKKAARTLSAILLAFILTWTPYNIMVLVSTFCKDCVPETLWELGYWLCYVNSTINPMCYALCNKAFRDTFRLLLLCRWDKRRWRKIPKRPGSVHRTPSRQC
Experimental: Cells were routinely cultured in Dulbecco's Modified eagle medium (Gibco, UK) supplemented with 10% fetal bovine serum (FBS), 1×MEM non-essential amino-acid, […] Glutamine, 100μ/ml Penicillin, 0.1 mg/ml Streptomycin, 25 μg/ml Amphotericin B and 100 μg/ml G418 (Biological industries, Israel). Cells were kept in a humidified atmosphere at 37° C. in 5% CO2 and were passaged twice weekly by 2.5 mg/ml trypsin-EDTA (0.02%) solution (Biological industries, Israel) and re-suspended in fresh media.
Calcium fluorescence measurements were performed using a NOVOstar plate reader with an injector and a pipetting system (BMG Labtech, Ortenberg, Germany). At the day before the experiment Chinese Hamster Ovary (CHO) cells expressing human M1 mAChR subtypes (CHOM1) were harvested and rinsed with culture medium (see section “cell culture”, supra) without Phenol red and evenly plated into black-wall clear optical bottom 96-well plate (Nunc, Rochester NY, USA) at a density of 40,000 cells/well. Growth medium was removed and 80 μl of loading buffer, containing 2.5 mM probenecid, was carefully added (loading buffer prepared according to FLUO-4 NW calcium assay kit manual). The cell plate was incubated at 37° C. for 30 minutes; then at room temperature for an additional 30 minutes. EGTA (10 μl of 50 mM dissolved in HBSS) was added automatically to each well using the NOVOstar injector system followed by shaking of 1 minute (1 mm width, 600 rpm) and then incubated for another 10 minutes. HBSS alone or test compounds dissolved in HBSS were then added (10 μl) sequentially into separate wells using the NOVOstar robotic pipettor system. Fluorescence intensity was measured at 0.5 second intervals, for 30 second for each well, using an excitation wavelength of 485 nm (bandwidth 10 nm) and emission of 520 nm (bandwidth 10 nm), cut-off 515 nm. All assays were carried out in triplicates in three independent experiments. Competition curves and EC50 values were derived using the GraphPad Prism software program, version 3.0.

[2] = system: TREM2 (sTREM2, tTREM2) in primary microglia; test: Soluble and total TREM2 levels (ELISA) in primary microglia cultures; assay type: cell-based, mouse; details: for sTREM2 levels in medium: normalized to PMA 1 μM
Experimental: Primary microglia were isolated from C57BL6 pups (P4-6). Mouse brains were prepared by removing the cerebellum and the meninges. Brain tissue was dissected and single cell suspension was sorted via CD11b Microbeads (Milteny Biotec) to obtain primary microglia. Cells were plated at 4×10^5 cell/ml in 24 well plates and cultured for 24 hours in DMEM supplemented with 10% FBS and 1% Penicillin/Streptomycin.
Mouse primary microglia were prepared from mice postnatal day 4-6 according to standard protocols (Neuronal Tissue Dissociation Kit (P), 130-092-628 and CD11b Microbeads, 130-093-634; Miltenyi Biotec 5 GmbH, Germany) and seeded in 24-well plates at a density of 4×10^5 cells/well. After one day, cell medium was removed and cells were washed once with PBS. Subsequently, cell were treated with compound NSC001 (0-2000 μM) in FBS-free DMEM for 1 or 24 hours. Termination of the assay was carried out by collecting the media and concomitant concentration via centrifugal filter units (Amicon, Z648027-24EA, Sigma 10 Aldrich, Ireland). Cell lysis was performed by adding RIPA lysis buffer (RIPA buffer, R0278, Sigma-Aldrich Co LLC, USA) followed by agitating the cells at 4° C. for 30 min. Primary microglia cell lysates and concentrated cell medium were analyzed for soluble TREM2 (sTREM2; FIG. 3A,B) and total TREM2 (tTREM2; FIG. 3C,D) levels by ELISA (CSBEL024405MO, Cusabio Life Science, China).

[3] = system: human blood-derived macrophages; test: Cell viability (PrestoBlue) of blood-derived human macrophages; assay type: cell-based; details: for cell viability in regards to medium control: 0-24 h, 1-2000 μM for NSC001 and AF102B; for persistence of the cell viability effect: after 24 hours of treatment
Experimental: Human blood-derived macrophages were isolated from buffy coat via standard protocols (Monocyte isolation Kit, 130091153, Miltenyi Biotec GmbH, Germany) and differentiated for 9 days in M-CSF medium (Ser. No. 12/065,074, Thermo Fisher, Switzerland,) supplemented with 125 ng/ml human GM-CSF (130093864, Miltenyi Biotec GmbH, Germany) to induce M1 macrophage differentiation. Upon differentiation, cells were harvested and re-seeded at 1 Mio cells per 24-well. […] Cell viability was detected by absorbance measurements utilizing the PrestoBlue colorimetric assay (PrestoBlue Cell Viability Reagent, A13261, Thermo Fisher, Switzerland). Cell viability was assessed directly after compound application at 0 h and after 1 h, 3 h and 24 h.

AD patients = details: cited from earlier work
M1 receptor = target: T2, M1 receptor (Homo sapiens, UniProt P11229); details: in vitro; cited from earlier work
T2 sequence (P11229 1-460): T1 sequence (P11229 1-460)

human M1 mAChR [4] = target: T1, human M1 mAChR; test: Phosphoinositide (PI) hydrolysis in CHOM1 cells; assay type: cell-based; set-up: expressed in transfected cells; host or cells: CHO (Chinese Hamster Ovary) cells, CHOM1, kept under G418; details: for Emax at 1000 µM: read-out: PI hydrolysis maximal response relative to CCh
Experimental: (§1) Rat pheochromocytoma cells (PC12) transfected with rat M1 muscarinic receptor (PC12M1) or CHOM1 cells were seeded in 24-well plates at a density of 4-8×10^5 cells/well. A day later, a fresh growth medium containing 1 μCi/ml [^3H]inositol (myo-[2-^3H(N)] 22 Ci/mmol; purchased from NEN, Boston, MA) was added for 18-24 h (overnight). Then, the medium was removed and the cells were washed twice followed by pre-incubation (10 min) with serum-free medium containing 20 mM Hepes pH 7.4 and 10 mM LiCl. […] Basal activity was determined in cells that were incubated in parallel without the tested compounds. Termination of the assay was carried out by aspirating the media and adding 0.5 ml 2% trichloroacetic acid (TCA) followed by agitating the cells in the cold for 30 min. The TCA extracts were transferred to anion-exchange columns, washed five times with 5 mM inositol, once with 5 ml 5 mM Na2B4O7 in 60 mM formic acid, and the total IPs were eluted with 3 ml 1 M NH4COOH in 0.1 M formic acid. The effluent was collected into scintillation vials and the radioactivity was measured using liquid scintillation counter, 1214 Rackbeta LKB Wallac.

[5] = dry storage conditions; cited from earlier work
[6] = target: T3, rat M1 muscarinic receptor (Rattus norvegicus, UniProt P08482); test: Phosphoinositide (PI) hydrolysis in PC12M1 cells; assay type: cell-based
T3 construct: expressed in transfected cells; host or cells: PC12 rat pheochromocytoma cells (PC12M1)
T3 sequence (P08482 1-460): T1 sequence (P11229 1-460) with A5V, T254S, P309S, R320K, A337G, I413V
Experimental: as §1

3×Tg-AD mice = details: cited from earlier work
[7] = 24 hours treatment, hydrochloride
[8] = 24 hours treatment, listed as AF267B

| SMILES | EC50 (human M1 mAChR [1]) [nM] | calcium mobilization response relative to CCh (human M1 mAChR [1]) [%] | persistence of the cell viability effect [3] | Aβ levels (M1 receptor) | Aβ-induced neurotoxicity (M1 receptor) | tau hyperphosphorylation (M1 receptor) | αAPPs (M1 receptor) | Emax at 1000 µM (human M1 mAChR [4]) [%] | cell viability in regards to medium control [3] | also measured |
| --- | --- | --- | --- | --- | --- | --- | --- | --- | --- | --- |
| C[C@@H]1O[C@@]2(CS1)CN1CCC2CC1.Cl (racemic) [AF102B, cis-2-Methylspiro[1,3-oxathiolane-5,3′-quinuclidine] hydrochloride, reference compound] | 1680 ± 330 | 101 | persisted | decrease | block | decrease | elevate | 43 | – | sTREM2 levels in medium [2, 7]: capable of inducing sTREM2 levels; also recorded: significantly enhances; also recorded: significantly increases; cellular tTREM2 levels [2, 7]: not affected; also recorded: unaffected; also recorded: unaltered; concentration at which the compound is active ([2]; features (i) to (iii): sTREM2 secretion, calcium mobilization and/or PI hydrolysis): 10 to 100 µM; cell viability in regards to medium control ([3]; hydrochloride): increased; also recorded: increase in viability; levels of Aβ in the CSF (AD patients): significantly decreased |
| CCO [Ethanol] | – | – | – | – | – | – | – | – | reduced cell viability; also recorded: rapidly decreases cell viability | – |
| CCC1SC2(CCN(C)CC2)NC1=O (stereo not shown) [Form II] | – | – | – | – | – | – | – | – | – | stability of the crystalline form [5]: highly stable under dry storage conditions for at least two years |
| CC[C@@H]1SC2(CCN(C)CC2)NC1=O [NSC001, (S)-2-ethyl-8-methyl-1-thia-4,8-diaza-spiro[4.5]decan-3-one] | 1840 ± 390 | 113 | persisted | decrease | block | decrease | increase | 63 ± 1 | increased; also recorded: increase in viability | PI hydrolysis / M1 mAChR activation [6]: efficacious; also recorded: efficiently induces PI hydrolysis; cellular tTREM2 levels ([2]; 1 hour treatment): remained constant; also recorded: no effect; sTREM2 levels in medium ([2]; 1 hour treatment): no alteration detected; also recorded: no effect; concentration able to increase sTREM2 levels comparable to PMA ([2]; 24 h, PMA 1 μM): 1 µM; further increase in sTREM2 exceeding the levels upon PMA treatment (1 μM) ([2]; 24 h, higher concentrations 100-2000 μM): not observed; cellular tTREM2 levels ([2]; 24 hours treatment): remain constant; sTREM2 levels in medium ([2]; 24 hours treatment): significant increase; sTREM2 levels in medium [2, 8]: significantly increases; cellular tTREM2 levels [2, 8]: unaltered; cellular tTREM2 levels ([2]; 24 hours treatment, listed as NSC0001): not affected; concentration at which the activity of features (i) to (iii) is displayed ([2]; sTREM2 secretion, calcium mobilization and/or PI hydrolysis): 1 to 5 µM; spatial memory (3×Tg-AD mice): improve spatial memory; Aβ and tau pathologies (3×Tg-AD mice; hippocampus and cortex): reduced; EC50 (human M1 mAChR [4]; CHOM1 cells): 19000 nM |
| CCCCCCCCCCCCCC(=O)O[C@@H]1[C@@H](C)[C@@]2(O)[C@@H](C=C(CO)C[C@]3(O)C(=O)C(C)=C[C@@H]23)[C@@H]2C(C)(C)[C@]12OC(C)=O [PMA, Phorbol myristate acetate] | – | – | reversed to baseline | – | – | – | – | – | increased | – |
